Legend:
[1] = tested on: growth plate cartilage mineralization; experiment: microradiograph of the proximal tibia; format: in vivo, rat; conditions: 4 mg to 100 g rats at t=0 and 24 h, killed at 48 h
Method: These rats were exsanguinated at t=48 h. Serum was obtained at each time point and stored at -20° C. until later analysis. Tibias from the rats killed at 48 h, as well as from age-matched controls, were removed, cleaned of adhering tissue, and fixed in 70% ethanol. Tibia samples were embedded in plastic and cut into sections of 500 microns by Pathology Associates International (Frederickberg, Md.). The resulting sections were microradiographed using a Hewlett-Packard Model […] Faxitron Xray machine. All animal experiments were approved by the UCSD animal subjects committee.

[2] = weight, tibia length and serum calcium and phosphate in warfarin-treated rats; format: in vivo, rat
Description: This procedure induces artery calcification within 2 weeks without the presence of hypercalcemia.

[3] = tested on: arotinoid-induced bone resorption; conditions: relative antiresorption potency in the rat, etidronate = 1; cited from earlier work
[4] = centrifugation of serum at 16,000 x g; format: in vivo, rat
Method: The effect of centrifugation on the serum mineral complex was investigated in serum samples obtained 6 h after administration of etidronate at doses of 8 mg/100 g and 32 mg/100 g body weight. At the lower dose, no significant amount of calcium, phosphate, or MGP was sedimented after centrifugation for 30 min at 16,000×g. At the higher dose, a well-defined translucent pellet was obtained after centrifugation for 30 min at 16,000×g. This pellet was dissolved in 1 ml of 50 mM HCl and analyzed for calcium, phosphate, and MGP.

[5] = tested on: normal bone mineralization; conditions: parenteral; cited from earlier work
[6] = serum levels of calcium and phosphate in rats treated with vitamin D plus warfarin; format: in vivo, rat
Method: For measurement of mineral accumulation in arteries, each tissue was removed within 30 minutes of death and immediately frozen. Tissues were subsequently washed extensively with buffer and extracted with 1 ml of 10% formic acid for 24 h at room temperature, as described. Calcium levels in serum were determined colorimetrically using cresolphthalein complexone (Sigma) and phosphate levels in serum and in acid tissue extracts were determined calorimetrically as described (Zhu et al. (1994) Cardiology, 85: 370-377). Tissue sectioning and staining were carried out by Biomedical Testing Services, Inc., (San Diego, Calif.). […]

[7] = tested on: aorta calcification in rats treated with vitamin D plus warfarin; experiment: von Kossa staining for calcification in rats treated with vitamin D plus warfarin; format: in vivo, rat; conditions: 84 h; for Histology Score Observer #1 x ± S.D. / Histology Score Observer #2 x ± S.D.: score 0-5
Method: (§1) For measurement of mineral accumulation in arteries, each tissue was removed within 30 minutes of death and immediately frozen. Tissues were subsequently washed extensively with buffer and extracted with 1 ml of 10% formic acid for 24 h at room temperature, as described. Calcium levels in serum were determined colorimetrically using cresolphthalein complexone (Sigma) and phosphate levels in serum and in acid tissue extracts were determined calorimetrically as described (Zhu et al. (1994) Cardiology, 85: 370-377). Tissue sectioning and staining were carried out by Biomedical Testing Services, Inc., (San Diego, Calif.).
Male Sprague Dawley rats were fed ad libitum with rodent diet 5001 (Purina Mills Inc., St. Louis, Mo.), a diet that is 0.67% phosphorus and 0.95% calcium by weight. This diet contains 500 μg per kg of phylloquinone and has no added menadione. In all experiments, animals were killed by exsanguination while under metofane anesthetic, and selected tissues were removed immediately and fixed in 10% buffered formalin or frozen at −20° C. for later studies. All animal experiments were approved by the UCSD animal subjects committee.

[8] = previous study (Price et al. 1981); cited from earlier work
[9] = tested on: warfarin-induced artery calcification; experiment: artery calcification in rats treated with warfarin for 2 or 4 weeks; format: in vivo, rat; conditions: 6.25 mg P/kg/day plus warfarin, both carotid arteries
Method: as §1, with “Tissues” for “For measurement of mineral accumulation in arteries, each tissue was removed within 30 minutes of death and immediately frozen. Tissues”, “Calif.). The effect of bisphosphonates on artery calcification was also examined in rats treated with warfarin alone using procedures which have been described elsewhere (Price et al. (1998) Arterioscler. Thromb. Vasc. Biol. 18: 1400-1407).” for “Calif.).”

[10] = filtration of serum through a 300 kDa membrane; format: in vivo, rat
Method: In a typical experiment, blood was obtained from 2 control rats and from 2 rats 6 h after a dose of 8 mg etidronate/100 g, and each blood sample was immediately placed into a 2.5 ml gold top vacutainer tube (SST gel and clot activator tube, Becton Dickinson). […] The filtrate and retentate were then analyzed to determine calcium, phosphate, and volume. The typical filtrate volume recovered was 0.70 ml and the typical retentate volume recovered was 0.26 ml.

[11] = 6.25 mg P/kg/day plus warfarin, 4 weeks
[12] = 32 mg/100 gm sc, 6 h, 1 ml pooled serum prior to centrifugation
[13] = 32 mg/100 gm sc, 6 h, 16,000 x g 30 min
[14] = 6.25 mg P/kg/day, 84 h after first vitamin D
[15] = 8 mg/100 g sc, 6 h, 0.26 ml retentate, 300 kDa membrane
[16] = 8 mg/100 g sc, 6 h, 0.7 ml filtrate, 300 kDa membrane
[17] = 8 mg/100 g sc, 6 h, 1 ml serum prior to filtration
[18] = 8 mg/100 g, 6 h serum incubated at room temperature for 1 day

CC(O)(P(=O)(O)O)P(=O)(O)O [Etidronate, (1-hydroxyethylylidene)-bisphosphonate]
microradiograph of the proximal tibial metaphysis [1]: alternating bands of calcification and no calcification | final length of the tibia ([2]; 6.25 mg P/kg/day plus warfarin 4 weeks, warfarin alone 3.80±0.04, p<0.001): 3.59±0.03 cm | Ending wt [2, 11]: 238 ± 11 gm | effect on weight gain [2, 11]: inhibits weight gain | mg Ca dl serum [2, 11]: 10.9 ± 0.8 mg/dL | mg P dl serum [2, 11]: 8.1 ± 0.6 mg/dL | Bone Resorption Relative potency [3]: 1 | sedimentation of calcium, phosphate or MGP ([4]; 8 mg/100 g, 6 h serum, 30 minutes at 16,000 x g): unable to demonstrate the sedimentation | Calcium, Initial Serum [4, 12]: 9.64 µmol | MGP, Initial Serum [4, 12]: 16,200 ng | Phosphate, Initial Serum [4, 12]: 7.49 µmol | Calcium, Dissolved Pellet [4, 13]: 3.27 µmol | Calcium, Supernatant [4, 13]: 6.88 µmol | MGP, Dissolved Pellet [4, 13]: 14,400 ng | MGP, Supernatant [4, 13]: 800 ng | Phosphate, Dissolved Pellet [4, 13]: 1.68 µmol | Phosphate, Supernatant [4, 13]: 5.84 µmol | dose required to inhibit normal bone mineralization in vivo [5]: about 5 mg P/kg/day | Serum Ca ([6]; 0.25 mg P/kg/day, 84 h): 13.7 ± 1.2 mg/dL | Serum P ([6]; 0.25 mg P/kg/day, 84 h): 10.8 ± 0.5 mg/dL | Serum Ca ([6]; 1.25 mg P/kg/day, 84 h): 13.5 ± 0.7 mg/dL | Serum P ([6]; 1.25 mg P/kg/day, 84 h): 9.5 ± 0.3 mg/dL | Serum Ca [6, 14]: 15.0 ± 0.5 mg/dL | Serum P [6, 14]: 8.2 ± 0.4 mg/dL | Histology Score Observer #1 x ± S.D. ([7]; 0.25 mg P/kg/day sc): 3.5 ± 1.3 | Histology Score Observer #2 x ± S.D. ([7]; 0.25 mg P/kg/day sc): 4.5 ± 1.0 | Histology Score Observer #1 x ± S.D. ([7]; 1.25 mg P/kg/day sc): 1.8 ± 2.4 | Histology Score Observer #2 x ± S.D. ([7]; 1.25 mg P/kg/day sc): 2.0 ± 2.4 | Histology Score Observer #1 x ± S.D. ([7]; 6.25 mg P/kg/day sc): 0.3 ± 0.5 | Histology Score Observer #2 x ± S.D. ([7]; 6.25 mg P/kg/day sc): 0.1 ± 0.3 | extent of von Kossa staining in the abdominal aorta ([7]; 6.25 mg P/kg/day, highest dose tested): significantly reduced | transient elevation in serum BGP levels [8]: 3 fold | nmol PO4 Carotid [9]: 55.2 ± 14.5 nmol | Calcium, Retentate [10, 15]: 2.72 µmol | MGP, Retentate [10, 15]: 11,630 ng | Phosphate, Retentate [10, 15]: 1.84 µmol | Calcium, Filtrate [10, 16]: 1.18 µmol | MGP, Filtrate [10, 16]: 291 ng | Phosphate, Filtrate [10, 16]: 2.98 µmol | Calcium, Initial Serum [10, 17]: 4.30 µmol | MGP, Initial Serum [10, 17]: 14,800 ng | Phosphate, Initial Serum [10, 17]: 5.10 µmol | filtrate MGP [10, 18]: 320 ng | filtrate calcium [10, 18]: 1.21 µmol | filtrate phosphate [10, 18]: 2.79 µmol | retentate MGP [10, 18]: 12,127 ng | retentate phosphate [10, 18]: 2.02 µmol | retentate calcium ([10]; 8 mg/100 g, 6 h serum incubated at room temperature for 1 day, then 300 kDa filtration): 2.83 µmol | retentate and filtrate levels of calcium, phosphate and MGP vs serum filtered immediately ([10]; serum frozen on dry ice and thawed 5 times): comparable
